Source: ChEMBL document CHEMBL1131705, “A highly stereoselective synthesis of plaunotol and its thiourea derivatives as potent antibacterial agents against Helicobacter pylori” (1999)
In brackets after ≈: the same amount, converted by molar mass.

How the values were obtained:
Assay type in all cases: functional
Helicobacter pylori [1] = experiment: In vitro antibacterial activity against Helicobacter pylori (No. 7)
Helicobacter pylori [2] = experiment: In vitro antibacterial activity against Helicobacter pylori (NCTC 11637)
Helicobacter pylori [3] = experiment: In vitro antibacterial activity against Helicobacter pylori (CPY 2052)
Helicobacter pylori [4] = experiment: Antibacterial activity against Helicobacter pylori (No. 7)
Helicobacter pylori [5] = experiment: Antibacterial activity against Helicobacter pylori (NCTC 11637)
Helicobacter pylori [6] = experiment: Antibacterial activity against Helicobacter pylori (CPY 2052)

Row | SMILES | MIC (Helicobacter pylori [1]) [µg/mL] | MIC (Helicobacter pylori [2]) [µg/mL] | MIC (Helicobacter pylori [3]) [µg/mL] | MIC (Helicobacter pylori [4]) [µg/mL] | MIC (Helicobacter pylori [5]) [µg/mL] | MIC (Helicobacter pylori [6]) [µg/mL]
1 | CC(C)=CCC/C(C)=C/CC/C(=C/CC/C(C)=C/C/N=C(\S)NCCc1ccccc1)CO | ≤ 0.1 | ≤ 0.1 | ≤ 0.1 |  |  | 
2 | CC(C)=CCC/C(C)=C/CCC(=CCCC(C)=CCO)C/N=C(\S)NCCc1ccccc1 | 1.56 (≈ 3.33 µM) | 25 (≈ 53.3 µM) | 1.56 (≈ 3.33 µM) |  |  | 
3 | CC(C)=CCC/C(C)=C/CC/C(=C/CC/C(C)=C/C/N=C(\S)NCCc1ccccc1)C/N=C(\S)NCCc1ccccc1 | 6.25 (≈ 9.9 µM) | 6.25 (≈ 9.9 µM) | 0.78 (≈ 1.24 µM) |  |  | 
4 | CC1(C)S[C@@H]2[C@H](NC(=O)[C@H](N)c3ccc(O)cc3)C(=O)N2[C@H]1C(=O)O [AMOXICILLIN] | 0.1 (≈ 0.274 µM) | 0.025 (≈ 0.0684 µM) | 0.05 (≈ 0.137 µM) |  |  | 
5 | CC(C)=CCC/C(C)=C/CC/C(=C/CC/C(C)=C/CO)CO [PLAUNOTOL] |  |  |  | 6.25 (≈ 20.4 µM) | 12.5 (≈ 40.8 µM) | 6.25 (≈ 20.4 µM)
